Inhibition data for 23 compounds are collected here from patent US12398151B2, “Sumo inhibitor compounds and uses thereof” (SUVALENT THERAPEUTICS, INC., priority 2019, dated 2025).

Molecules are shown by their SMILES. Where two headings read alike, the source gives them in different places. Bounds are passed on as bounds.

The target of test [1] is T1, SUMO E1 (Homo sapiens, UniProt Q9UBT2).
T1 sequence (Q9UBT2 1-640): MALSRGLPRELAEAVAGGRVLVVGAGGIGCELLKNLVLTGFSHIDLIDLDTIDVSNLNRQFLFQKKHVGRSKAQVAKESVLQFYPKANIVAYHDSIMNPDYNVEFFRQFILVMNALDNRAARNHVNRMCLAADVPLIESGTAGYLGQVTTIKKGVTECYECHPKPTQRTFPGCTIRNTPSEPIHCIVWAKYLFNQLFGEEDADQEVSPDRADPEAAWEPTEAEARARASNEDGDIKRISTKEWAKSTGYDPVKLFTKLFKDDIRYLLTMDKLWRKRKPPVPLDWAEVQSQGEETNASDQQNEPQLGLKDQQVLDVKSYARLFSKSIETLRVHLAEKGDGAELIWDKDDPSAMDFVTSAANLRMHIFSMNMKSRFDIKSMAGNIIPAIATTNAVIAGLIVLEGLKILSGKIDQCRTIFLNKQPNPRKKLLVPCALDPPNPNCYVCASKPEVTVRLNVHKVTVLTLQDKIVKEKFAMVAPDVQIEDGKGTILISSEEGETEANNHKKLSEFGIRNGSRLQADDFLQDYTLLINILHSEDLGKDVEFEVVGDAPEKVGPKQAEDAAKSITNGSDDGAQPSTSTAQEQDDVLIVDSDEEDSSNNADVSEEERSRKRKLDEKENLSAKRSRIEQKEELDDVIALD
T1 sequence (Q9UBE0 1-346 partner): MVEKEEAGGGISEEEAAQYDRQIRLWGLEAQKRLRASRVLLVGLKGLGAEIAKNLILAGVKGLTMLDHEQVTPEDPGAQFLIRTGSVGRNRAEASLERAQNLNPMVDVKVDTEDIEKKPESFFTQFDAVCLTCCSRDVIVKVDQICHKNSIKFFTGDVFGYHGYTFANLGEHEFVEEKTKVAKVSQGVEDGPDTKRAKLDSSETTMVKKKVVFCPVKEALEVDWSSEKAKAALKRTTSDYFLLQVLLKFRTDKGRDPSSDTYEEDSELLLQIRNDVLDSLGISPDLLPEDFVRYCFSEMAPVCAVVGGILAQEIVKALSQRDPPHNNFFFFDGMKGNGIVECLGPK
As to the kind of experiment: SUMO E1 inhibition: UBC9-SUMO1 conjugation by SDS gel electrophoresis. Type of test: biochemical. The conditions noted are these: read-out: SUMO E1 percent inhibition of adduct formation; for inhibition at 27 µM: 27 uM compound; for inhibition at 3 µM: 3 uM compound; for inhibition at 1 µM: 1 uM compound; for inhibition at 9 µM: 9 uM compound; for inhibition at 6 µM: 6 uM compound. The method in brief:
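SUMO E1 was preincubated with compound for a set time, then UBC9, SUMO1 and ATP were added and incubated at 37 °C. After Laemmli quench, UBC9-SUMO1 adduct was resolved by SDS gel; percent inhibition from band intensity versus no-compound control, reported with compound concentration (μM) and preincubation time (min).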

Test [2] addresses T2, Atg7 (Homo sapiens, UniProt O95352).
T2 sequence (O95352 1-703): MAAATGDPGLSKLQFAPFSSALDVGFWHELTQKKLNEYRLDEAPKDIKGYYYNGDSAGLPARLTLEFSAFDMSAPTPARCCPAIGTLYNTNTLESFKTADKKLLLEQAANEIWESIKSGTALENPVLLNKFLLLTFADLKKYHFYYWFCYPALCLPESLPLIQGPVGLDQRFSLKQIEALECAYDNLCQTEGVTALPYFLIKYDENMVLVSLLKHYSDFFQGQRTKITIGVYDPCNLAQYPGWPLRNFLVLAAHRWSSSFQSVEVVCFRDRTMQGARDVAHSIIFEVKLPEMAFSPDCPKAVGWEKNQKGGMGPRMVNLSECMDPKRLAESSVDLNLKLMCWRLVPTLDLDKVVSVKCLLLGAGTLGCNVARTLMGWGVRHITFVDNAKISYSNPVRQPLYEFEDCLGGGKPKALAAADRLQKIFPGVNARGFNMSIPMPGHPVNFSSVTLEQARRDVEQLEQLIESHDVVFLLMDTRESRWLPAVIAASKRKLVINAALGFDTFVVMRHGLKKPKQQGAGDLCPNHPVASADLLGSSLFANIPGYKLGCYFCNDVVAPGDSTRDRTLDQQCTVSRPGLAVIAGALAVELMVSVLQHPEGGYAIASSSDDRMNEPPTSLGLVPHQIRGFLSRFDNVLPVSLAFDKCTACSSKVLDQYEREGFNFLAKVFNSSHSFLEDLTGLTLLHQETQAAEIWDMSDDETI
As to the kind of experiment: Atg7 activating enzyme (E1) inhibition. The conditions noted are these: 25 uM compound, 60 min preincubation; read-out: Atg7 percent inhibition of adduct formation. It is filed as biochemical. The method in brief: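 Compounds were assessed for their ability to inhibit the Atg7 activating enzyme (E1) following previously published methods and protocols. The E1 enzyme was preincubated with compound, and activity was expressed as the percent inhibition of adduct formation, reported together with the compound concentration in uM and the E1–compound preincubation time in minutes.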

As a reminder, the inhibition is the percentage by which the read-out fell short of the control.

Consider `C=CC(=O)N1Cc2cc(Cl)sc2[C@@H](c2ccccc2C)C1` [Compound 127], for which the inhibition at 27 µM in test [1] (20 min preincubation) amounted to 95%. The inhibition at 25 µM in test [2] is less than 1%.

`C=CC(=O)N[C@H]1Cc2sccc2[C@@H](c2ccccc2Cl)C1` [Compound 130]: the inhibition at 3 µM in test [1] (30 min preincubation) is less than 1%. Further, the inhibition at 25 µM in test [2] was less than 1%.

For the compound `C=CC(=O)N1Cc2sc(Cl)cc2[C@@H](c2ccccc2-c2ccccc2)C1` [Compound 133], in test [1] (30 min preincubation), the inhibition at 1 µM came to 95%. For the same compound, in test [2], the inhibition at 25 µM is less than 1%.

Take `C=CC(=O)N1Cc2sc(Cl)cc2[C@@H]([C@@H](CC)C(=O)O)C1` [Compound 134]: the inhibition at 27 µM in test [1] (15 min preincubation) was less than 1%. Moreover, in test [2], the inhibition at 25 µM was less than 1%.

For the compound `C=CC(=O)N1Cc2sc(Cl)cc2[C@@H](c2ccccc2C2CC2)C1` [Compound 135], in test [1] (30 min preincubation), the inhibition at 27 µM was determined as 95%. In addition, the inhibition at 25 µM in test [2] was less than 1%.

Regarding `C=CC(=O)N1Cc2sc(Cl)cc2[C@@H](c2ccccc2-c2ccncc2)C1` [Compound 136], the inhibition at 3 µM in test [1] (30 min preincubation) was 100%. Further, in test [2], the inhibition at 25 µM was less than 1%.

As to `C=CC(=O)N1CC[C@H](c2ccccc2)c2cc(Cl)sc2C1` [Compound 137], the inhibition at 27 µM in test [1] (30 min preincubation) was less than 1%. In addition, the inhibition at 25 µM in test [2] is less than 1%.

Regarding `C=CC(=O)N1Cc2sc(Cl)cc2[C@@H](c2ccccc2CC2CCOCC2)C1` [Compound 138], the inhibition at 9 µM in test [1] (15 min preincubation) amounted to 50%. In addition, in test [2], the inhibition at 25 µM is less than 1%.

As for `C=CC(=O)N1CCc2ccccc2[C@@H](c2ccccc2)C1` [Compound 139], the inhibition at 27 µM in test [1] (30 min preincubation) was less than 1%. Besides, the inhibition at 25 µM in test [2] is less than 1%.

Take `C=CC(=O)N1CCc2ccccc2[C@@H](c2ccccc2)[C@H]1C` [Compound 140]: the inhibition at 27 µM in test [1] (30 min preincubation) was less than 1%. In addition, the inhibition at 25 µM in test [2] is less than 1%.

For the compound `O=C(/C=C/C(F)(F)F)N1Cc2sc(Cl)cc2[C@@H](c2ccccc2CC2CCOCC2)C1` [Compound 141], the inhibition at 1 µM in test [1] (30 min preincubation) worked out at 50%. The inhibition at 25 µM in test [2] was less than 1%.

`C=CC(=O)N1CCc2sc(Cl)cc2[C@@H](c2ccccc2)C1` [Compound 142]: the inhibition at 9 µM in test [1] (30 min preincubation) worked out at 80%. Further, the inhibition at 25 µM in test [2] is less than 1%.

With `Cc1ccccc1[C@H]1CN(C(=O)/C=C/C(F)(F)c2ccccn2)Cc2sc(Cl)cc21` [Compound 143], the inhibition at 27 µM in test [1] (30 min preincubation) was less than 1%. The inhibition at 25 µM in test [2] was less than 1%.

On to `C=CC(=O)N1Cc2sc(Cl)cc2[C@@H](C2=CN(C)CC=C2)C1` [Compound 145], for which the inhibition at 9 µM in test [1] (30 min preincubation) was less than 1%. Also, in test [2], the inhibition at 25 µM was less than 1%.

Regarding `C=CC(=O)N1Cc2sccc2[C@@H]([C@H]2CCCN(C)C2)C1` [Compound 146], the inhibition at 9 µM in test [1] (30 min preincubation) is less than 1%. Moreover, the inhibition at 25 µM in test [2] was less than 1%.

For the compound `C=CC(=O)N1Cc2sc(Cl)cc2[C@@H]([C@H]2CCCN(C)C2)C1` [Compound 147], in test [1] (30 min preincubation), the inhibition at 9 µM was less than 1%. Also, the inhibition at 25 µM in test [2] is less than 1%.

On to `C=CC(=O)N1Cc2sc(Cl)cc2[C@@H](c2ccco2)C1` [Compound 148], for which the inhibition at 9 µM in test [1] (30 min preincubation) is less than 1%. Moreover, the inhibition at 25 µM in test [2] is less than 1%.

`C=CC(=O)N1Cc2sc(Cl)c(F)c2[C@@H](c2ccccc2C)C1` [Compound 150]: the inhibition at 22 µM in test [1] (22 uM compound, 30 min preincubation) turned out to be 50%. The inhibition at 25 µM in test [2] was less than 1%.

As for `C=CC(=O)N1Cc2sc(Cl)cc2[C@@H](c2ccccc2OCCN(C)C)C1` [Compound 151], in test [1] (15 min preincubation), the inhibition at 6 µM is less than 1%. Further, the inhibition at 25 µM in test [2] was less than 1%.

For `C=CC(=O)N1Cc2sc(Cl)cc2[C@@H](c2ccccc2OCCCN(C)C)C1` [Compound 152], the inhibition at 6 µM in test [1] (15 min preincubation) is less than 1%. In addition, in test [2], the inhibition at 25 µM was less than 1%.

Turning to `C=CC(=O)N1Cc2sc(Cl)cc2[C@@H](c2ccccc2OCCCN2CCCC2)C1` [Compound 153], the inhibition at 6 µM in test [1] (15 min preincubation) is less than 1%. For the same compound, in test [2], the inhibition at 25 µM is less than 1%.

For `C=CC(=O)N1Cc2sc(Cl)cc2[C@@H](c2csc3ccccc23)C1` [Compound 154], the inhibition at 18 µM in test [1] (18 uM compound, 15 min preincubation) was less than 1%. Further, in test [2], the inhibition at 25 µM was less than 1%.

Regarding `C=CC(=O)N1Cc2sccc2[C@@H](c2ccc(OC)cc2)C1` [Compound 155], the inhibition at 15 µM in test [1] (15 uM compound, 15 min preincubation) is less than 1%. The inhibition at 25 µM in test [2] was less than 1%.
